From the CheMixHub viscosity set
Values joined by “and” are separate entries in the source; they are usually repeats but may differ in a detail not shown here. Equal values may be shown once.

Assay: xn = mol fraction of the nth substance listed

CCCCCCCCCCO + Cc1ccc(C)cc1
viscosity [mPa·s], 101 kPa
Conditions | 298.15 K | 308.15 K
x2 = 0.0806 | 9.447 | 6.565
x2 = 0.1731 | 7.145 | 5.045
x2 = 0.2506 | 5.591 | 4.011
x2 = 0.3197 | 4.463 | 3.242
x2 = 0.3693 | 3.779 | 2.781
x2 = 0.4336 | 3.053 | 2.275
x2 = 0.4929 | 2.512 | 1.9
x2 = 0.5771 | 1.908 | 1.481
x2 = 0.662 | 1.456 | 1.153
x2 = 0.7265 | 1.2 | 0.963
x2 = 0.7763 | 1.04 | 0.845
x2 = 0.8293 | 0.9 | 0.744
x2 = 0.8891 | 0.776 | 0.648
x2 = 0.9369 | 0.693 | 0.59

CCCCCCCCCCO + c1ccccc1
viscosity [mPa·s], 100 kPa
Conditions | x2 = 0.0822 | x2 = 0.1563 | x2 = 0.2472 | x2 = 0.3611 | x2 = 0.4531 | x2 = 0.5602 | x2 = 0.6533 | x2 = 0.7528 | x2 = 0.8574 | x2 = 0.9496
293.15 K | 12.2 | 10.48 | 8.738 | 6.833 | 5.51 | 4.154 | 3.087 | 2.082 | 1.318 | 0.839
303.15 K | 8.134 | 6.872 | 5.555 | 4.197 | 3.332 | 2.5 | 1.888 | 1.361 | 0.925 | 0.656
313.15 K | 5.704 | 4.746 | 3.723 | 2.709 | 2.089 | 1.514 | 1.132 | 0.877 | 0.673 | 0.546
323.15 K | 4.088 | 3.345 | 2.548 | 1.757 | 1.34 | 1.012 | 0.796 | 0.644 | 0.536 | 0.461

CCC#N + CC#N
298 K, 101.33 kPa
Conditions | viscosity [mPa·s]
x1 = 0.1298 | 0.35
x1 = 0.2716 | 0.36
x1 = 0.4271 | 0.374
x1 = 0.5986 | 0.384
x1 = 0.7885 | 0.402

CCCCCCCCCCO + CCO
viscosity [mPa·s], 101 kPa
Conditions | 298.15 K | 308.15 K | 318.15 K
x2 = 0.05 | 10.42 | 7.3 | 4.847
x2 = 0.1 | 9.841 | 7.003 | 4.436
x2 = 0.15 | 9.249 | 6.644 | 4.102
x2 = 0.2 | 8.648 | 6.24 | 3.83
x2 = 0.25 | 8.044 | 5.809 | 3.604
x2 = 0.3 | 7.442 | 5.364 | 3.409
x2 = 0.35 | 6.845 | 4.919 | 3.236
x2 = 0.4 | 6.259 | 4.484 | 3.073
x2 = 0.45 | 5.687 | 4.065 | 2.912
x2 = 0.5 | 5.133 | 3.671 | 2.747
x2 = 0.55 | 4.6 | 3.304 | 2.575
x2 = 0.6 | 4.09 | 2.967 | 2.391
x2 = 0.65 | 3.606 | 2.659 | 2.195
x2 = 0.7 | 3.15 | 2.378 | 1.989
x2 = 0.75 | 2.723 | 2.119 | 1.775
x2 = 0.8 | 2.326 | 1.876 | 1.558
x2 = 0.85 | 1.961 | 1.641 | 1.344
x2 = 0.9 | 1.627 | 1.402 | 1.141
x2 = 0.95 | 1.325 | 1.146 | 0.9601

CC(C)CCC[C@@H](C)[C@H]1CC[C@H]2[C@@H]3CC=C4C[C@@H](O)CC[C@]4(C)[C@H]3CC[C@]12C + Cc1ccccc1
viscosity [mPa·s], 101.33 kPa
Conditions | x1 = 0.0038 | x1 = 0.00638 | x1 = 0.01075 | x1 = 0.01353 | x1 = 0.01707 | x1 = 0.02159 | x1 = 0.02737 | x1 = 0.03485
298 K | 0.567 | 0.579 | 0.604 | 0.616 | 0.639 | 0.672 | 0.716 | 0.787
303 K | 0.534 | 0.546 | 0.569 | 0.579 | 0.599 | 0.628 | 0.668 | 0.731
313 K | 0.478 | 0.488 | 0.508 | 0.515 | 0.533 | 0.556 | 0.591 | 0.64
323 K | 0.432 | 0.44 | 0.458 | 0.464 | 0.476 | 0.497 | 0.523 | 0.562

CCCCCCCCCCCC + CCCCCCCC
Conditions | viscosity
298.15 K, 101.33 kPa, x2 = 0.1117 | 1.233 mPa·s
298.15 K, 101.33 kPa, x2 = 0.2101 | 1.138 mPa·s
298.15 K, 101.33 kPa, x2 = 0.3025 | 1.038 mPa·s
298.15 K, 101.33 kPa, x2 = 0.4085 | 0.9477 mPa·s
298.15 K, 101.33 kPa, x2 = 0.5069 | 0.8672 mPa·s
298.15 K, 101.33 kPa, x2 = 0.6088 | 0.7703 mPa·s
298.15 K, 101.33 kPa, x2 = 0.7035 | 0.71 mPa·s
298.15 K, 101.33 kPa, x2 = 0.804 | 0.6353 mPa·s
298.15 K, 101.33 kPa, x2 = 0.9048 | 0.5647 mPa·s
298.2 K, 100 kPa, x2 = 0.5 | 0.869 mPa·s
323.15 K, 100 kPa, x2 = 0.434 | 0.658 mPa·s and 0.657 mPa·s
323.15 K, 100 kPa, x2 = 0.743 | 0.502 mPa·s and 0.501 mPa·s

CCCCCCCCCCCC + CC(C)O
viscosity [mPa·s], 101.32 kPa
Conditions | 293.15 K | 298.15 K | 303.15 K
x2 = 0.0422 | 1.446 | 1.325 | 1.219
x2 = 0.0957 | 1.424 | 1.306 | 1.191
x2 = 0.2215 | 1.397 | 1.276 | 1.177
x2 = 0.3267 | 1.396 | 1.27 | 1.164
x2 = 0.3943 | 1.407 | 1.28 | 1.167
x2 = 0.4959 | 1.421 | 1.28 | 1.16
x2 = 0.5981 | 1.48 | 1.324 | 1.192
x2 = 0.6957 | 1.566 | 1.392 | 1.243
x2 = 0.8012 | 1.714 | 1.503 | 1.33
x2 = 0.9005 | 1.92 | 1.674 | 1.467
x2 = 0.9502 | 2.101 | 1.815 | 1.58
